Data as given in US12194198B2, “High strength porous materials for controlled release” (Access Vascular, Inc., priority 2018, dated 2025).

Assays:
[1] = Chlorhexidine free base saturation in methanol; assay type: physicochemical; conditions: CHX/methanol solutions
Text: Solution was made with […] chlorhexidine free base (CHX) in methanol. CHX/methanol solutions appeared to reach saturation around 1000 ppm. Serial dilutions were made from the solution, where the UV-Vis would become overloaded when concentrations were above 200 ppm. In order to avoid overloading the UV-Vis, concentrations below 100 ppm were used to collect absorbance values. FIG. 8 and Table 6 show the absorbance data collected from the chlorhexidine free base standards.

P. aeruginosa = conditions: cited from earlier work
A. baumannii = conditions: cited from earlier work

[H]/N=C(\N/C(=N/[H])NCCCCCCNC(=N)NC(=N)Nc1ccc(Cl)cc1)Nc1ccc(Cl)cc1 [chlorhexidine]
saturation concentration in methanol [1]: around 1000 ppm | largest known minimum bactericidal concentration (MBC) (P. aeruginosa): 128 µg/mL | largest known minimum inhibitory concentration (MIC) (A. baumannii): 64 µg/mL
